The source of these data is ChEMBL document CHEMBL4622916, “Synthesis of tetracyclic oxindoles and evaluation of their α-glucosidase inhibitory and glucose consumption-promoting activity” (Bioorg Med Chem Lett, 2020).

pIC50: −log10 of the molar value. Activity calls are given as the source filed them. The calls are words filed in the database; no cut-off is given here.

Biological target in the first series: not listed separately
As to the kind of experiment: Inhibition of alpha-glucosidase (unknown origin). Further details: species or system Homo sapiens.
A word on the pIC50: it is the IC50 on a negative log10 scale, so that one unit is a factor of ten. The low end stands for a large IC50, the high end for a small IC50. In turn, `O=C(/C=C/c1ccc(Cl)cc1Cl)[C@@H]1[C@@H](c2ccc(Cl)cc2Cl)[C@@H]2CSCN2C12C(=O)Nc1ccccc12` (stereo not given in full) showed a pIC50 of 5.13.
In the case of `COC(=O)/C=C/c1ccc2c(c1)C1(C(=O)N2Cc2ccc(OC)cc2)[C@H](C(=O)/C=C/c2ccc(F)cc2)[C@@H](c2ccc(F)cc2)[C@@H]2CSCN21` (stereo not given in full), the pIC50 was 5.35.
Still for that read-out and setting: under `C[C@H]1O[C@H](O[C@H]2[C@H](O)[C@@H](O)[C@@H](O[C@H]3[C@H](O)[C@@H](O)C(O)O[C@@H]3CO)O[C@@H]2CO)[C@H](O)[C@@H](O)[C@@H]1N[C@H]1C=C(CO)[C@@H](O)[C@H](O)[C@H]1O` (stereo not given in full) [ACARBOSE] stands 4.30; under `COC(=O)/C=C/c1ccc2c(c1)C1(C(=O)N2Cc2ccc(OC)cc2)[C@H](C(=O)/C=C/c2ccc(-c3ccccc3)cc2)[C@@H](c2ccc(-c3ccccc3)cc2)[C@@H]2CSCN21` (stereo not given in full), 5.38.
Still for that read-out and setting: under `COc1ccc(CN2C(=O)C3(c4cc(Br)ccc42)[C@H](C(=O)/C=C/c2ccccc2Br)[C@@H](c2ccccc2Br)[C@@H]2CSCN23)cc1` (stereo not given in full) stands 5.39; under `O=C(/C=C/c1ccccc1Br)[C@@H]1[C@@H](c2ccccc2Br)[C@@H]2CSCN2C12C(=O)Nc1ccccc12` (stereo not given in full), 5.35; under `COc1ccc(/C=C/C(=O)[C@@H]2[C@@H](c3ccc(OC)c(OC)c3)[C@@H]3CSCN3C23C(=O)Nc2ccccc23)cc1OC` (stereo not given in full), below 4.30.
Still for that read-out and setting: under `COC(=O)/C=C/c1ccc2c(c1)C1(C(=O)N2Cc2ccc(OC)cc2)[C@H](C(=O)/C=C/c2ccc(N(C)C)cc2)[C@@H](c2ccc(N(C)C)cc2)[C@@H]2CSCN21` (stereo not given in full) stands 5.02.
In turn, `COC(=O)/C=C/c1ccc2c(c1)C1(C(=O)N2Cc2ccc(OC)cc2)[C@H](C(=O)/C=C/c2ccccc2Br)[C@@H](c2ccccc2Br)[C@@H]2CSCN21` (stereo not given in full) gave a pIC50 of 5.33.
Still for that read-out and setting: the value for `O=C(/C=C/c1ccc(Cl)cc1)[C@@H]1[C@@H](c2ccc(Cl)cc2)[C@@H]2CSCN2C12C(=O)Nc1ccccc12` (stereo not given in full) was 5.13.
Still for that read-out and setting: the value for `O=C(/C=C/c1ccco1)[C@@H]1[C@@H](c2ccco2)[C@@H]2CSCN2C12C(=O)Nc1ccccc12` (stereo not given in full) was below 4.30.
In the case of `Cc1ccc(/C=C/C(=O)[C@@H]2[C@@H](c3ccc(C)cc3)[C@@H]3CSCN3C23C(=O)Nc2ccccc23)cc1` (stereo not given in full), the pIC50 was 4.72.
For `COc1ccc(CN2C(=O)C3(c4cc(Br)ccc42)[C@H](C(=O)/C=C/c2ccc(Cl)cc2Cl)[C@@H](c2ccc(Cl)cc2Cl)[C@@H]2CSCN23)cc1` (stereo not given in full), the negative logarithm of the IC50 (pIC50) was 4.85.
In turn, `COC(=O)/C=C/c1ccc2c(c1)C1(C(=O)N2Cc2ccc(OC)cc2)[C@H](C(=O)/C=C/c2ccc(Br)cc2)[C@@H](c2ccc(Br)cc2)[C@@H]2CSCN21` (stereo not given in full) showed a pIC50 of 5.07.
Same read-out and setting: under `COC(=O)/C=C/c1ccc2c(c1)C1(C(=O)N2Cc2ccc(OC)cc2)[C@H](C(=O)/C=C/c2ccc(Cl)cc2Cl)[C@@H](c2ccc(Cl)cc2Cl)[C@@H]2CSCN21` (stereo not given in full) stands 5.35; under `O=C(/C=C/c1ccc(Cl)cc1)[C@@H]1[C@@H](c2ccc(Cl)cc2)[C@@H]2CSCN2C12C(=O)Nc1ccc(Br)cc12` (stereo not given in full), 5.31.
In turn, `COC(=O)/C=C/c1ccc2c(c1)C1(C(=O)N2Cc2ccc(OC)cc2)[C@H](C(=O)/C=C/c2ccccc2)[C@@H](c2ccccc2)[C@@H]2CSCN21` (stereo not given in full) gave a pIC50 of 5.08.
The same measure, in the same setting: the value for `CCN(CC)c1ccc(/C=C/C(=O)[C@@H]2[C@@H](c3ccc(N(CC)CC)cc3)[C@@H]3CSCN3C23C(=O)N(Cc2ccc(OC)cc2)c2ccc(/C=C/C(=O)OC)cc23)cc1` (stereo not given in full) was 5.13; that for `COC(=O)/C=C/c1ccc2c(c1)C1(C(=O)N2Cc2ccc(OC)cc2)[C@H](C(=O)/C=C/c2ccc(OC)cc2)[C@@H](c2ccc(OC)cc2)[C@@H]2CSCN21` (stereo not given in full) was 5.42.
In turn, `COc1ccc(CN2C(=O)C3(c4cc(Br)ccc42)[C@H](C(=O)/C=C/c2ccc(N(C)C)cc2)[C@@H](c2ccc(N(C)C)cc2)[C@@H]2CSCN23)cc1` (stereo not given in full) gave a pIC50 of 5.44. This pIC50 and that of the compound before are within 0.2 log units of each other.
The same measure, in the same setting: under `COc1ccc(CN2C(=O)C(=O)c3cc(Br)ccc32)cc1` stands 4.40.
`COc1ccc(CN2C(=O)C3(c4cc(Br)ccc42)[C@H](C(=O)/C=C/c2ccc(Cl)cc2)[C@@H](c2ccc(Cl)cc2)[C@@H]2CSCN23)cc1` (stereo not given in full) gave a pIC50 of 5.41.
The same measure, in the same setting: under `CN(C)c1ccc(/C=C/C(=O)[C@@H]2[C@@H](c3ccc(N(C)C)cc3)[C@@H]3CSCN3C23C(=O)Nc2ccccc23)cc1` (stereo not given in full) stands 5.32; under `O=C(/C=C/c1ccccc1)[C@@H]1[C@@H](c2ccccc2)[C@@H]2CSCN2C12C(=O)Nc1ccccc12` (stereo not given in full), 4.79.
The same measure, in the same setting: the value for `O=C(/C=C/c1ccccc1Cl)[C@@H]1[C@@H](c2ccccc2Cl)[C@@H]2CSCN2C12C(=O)Nc1ccccc12` (stereo not given in full) was 5.01.
`COC(=O)/C=C/c1ccc2c(c1)C1(C(=O)N2Cc2ccc(OC)cc2)[C@H](C(=O)/C=C/c2ccc(Cl)cc2)[C@@H](c2ccc(Cl)cc2)[C@@H]2CSCN21` (stereo not given in full) gave a pIC50 of 5.33.

The species named for the next series is Homo sapiens. As to the kind of experiment: Reversible competitive inhibition of alpha-glucosidase (unknown origin) by Lineweaver-Burk plot analysis.
For the compound `COc1ccc(CN2C(=O)C3(c4cc(Br)ccc42)[C@H](C(=O)/C=C/c2ccc(N(C)C)cc2)[C@@H](c2ccc(N(C)C)cc2)[C@@H]2CSCN23)cc1` (stereo not given in full), the inhibition result was “Active”.

The next series relates to HepG2. As to the kind of experiment: Increase in glucose consumption in human HepG2 cells at 1 to 5 uM. It counts as functional, cell-based.
Take `COc1ccc(CN2C(=O)C3(c4cc(Br)ccc42)[C@H](C(=O)/C=C/c2ccc(N(C)C)cc2)[C@@H](c2ccc(N(C)C)cc2)[C@@H]2CSCN23)cc1` (stereo not given in full): the outcome was Active.

The test system of another series is HepG2. The series is described as follows: Cytotoxicity against human HepG2 cells. Type of series: cell-based.
Regarding `COc1ccc(CN2C(=O)C3(c4cc(Br)ccc42)[C@H](C(=O)/C=C/c2ccc(N(C)C)cc2)[C@@H](c2ccc(N(C)C)cc2)[C@@H]2CSCN23)cc1` (stereo not given in full), the Activity entry is recorded as “Non-Toxic”.

For the next series, the species on record is Homo sapiens. The series is described as follows: Potency index, ratio of IC50 of acarbose to IC50 of compound for inhibition of alpha-glucosidase (unknown origin).
`COc1ccc(CN2C(=O)C3(c4cc(Br)ccc42)[C@H](C(=O)/C=C/c2ccc(N(C)C)cc2)[C@@H](c2ccc(N(C)C)cc2)[C@@H]2CSCN23)cc1` (stereo not given in full): the Ratio IC50 stood at 14.
